ChEMBL document CHEMBL3988442, “University of Dundee, Small-Polar-MMV Screening Library” (2021)

Assays:
[1] = microbe, parasite or virus in culture; conditions: Mycobacterium tuberculosis, 96 h, read-out: pIC50 (converted)
[2] = microbe, parasite or virus in culture; conditions: Mycobacterium tuberculosis, 72 h, read-out: pIC50 (converted)

SMILES	IC50 [1] [µM]	IC50 [2] [µM]
Nc1cc(=O)[nH]n1-c1ccc(C(F)(F)F)cn1	308	197
O=C(NC1=NCCS1)c1sccc1C1CC1	398	232
CCOC(=O)CSc1ccc(-c2nc(CC)no2)cn1	27.2	29.9
CC(C)n1nccc1NC(=O)NCCc1nc2ccc(F)cc2n1C	> 50.1	> 50.1
O=C(c1cc[nH]n1)N1CCCC(c2cccc(-n3ccnc3)n2)C1 (stereo not drawn)	> 50.1	> 50.1
COC(=O)c1ccc(N2CCC(C(O)c3ccccc3)CC2)nn1 (stereo not drawn)	20.5	24.3
Cc1cc(C)cc(NC(=O)CNCCCO)c1	> 501	> 501
NC(=O)CCSCc1ccn(-c2ccccc2)n1	229	> 501
Cc1cc2nc(C(C)C)cc(N(C)CC3CCCN3C)n2n1 (stereo not drawn)	> 50.1	9.21
CCOCC(=O)NCC(O)c1cccc(C(F)(F)F)c1 (stereo not drawn)	> 501	> 501
CC(C)CS(=O)(=O)NCc1ccc2c(c1)OCO2	> 501	183
O=C(c1cccs1)N1CCC2(CC1)CN(c1ccsc1)C(=O)CO2	> 50.1	> 50.1
COc1ccccc1-c1ncc(CN2C[C@@H](N(C)C)[C@H](C(C)C)C2)s1	25.4	31.4
O=S(=O)(NCCNc1ccc(-n2cccn2)nn1)c1ccccc1	15.9	24.9
Nc1cc(-c2c[nH]nc2C2CCCCN2C(=O)C2CCCC2)ccn1 (stereo not drawn)	> 50.1	> 50.1
CC(C)Sc1nnc(-c2cccnc2)o1	219	8.8
CN(C)c1ccc(Br)c(S(=O)(=O)NC2CCNC2)c1 (stereo not drawn)	263	232
COC(=O)c1ccc(COc2ccccc2CO)o1	250	230
O=C(c1cccs1)N1CC(Oc2ccccc2Cl)C1	42.8	26.7
CCCNC(=O)CNc1cc(F)c(OC)c(F)c1	326	166
N#Cc1cnc2cc(F)cc(F)c2c1NC1CCN(CC(N)=O)CC1	> 50.1	> 50.1
O=S(=O)(c1ccco1)N1CCOCc2ccccc21	> 501	291
Cc1cnn(CCNCc2nccn2C)c1	294	306
COc1cccc2c1CCC2N (stereo not drawn)	> 501	223
c1ccc(Cc2cccc(C3CCCN3C3CCOCC3)n2)cc1 (stereo not drawn)	> 50.1	13.2
CC(C)CCC(=O)N1CCN(CC(O)C(F)(F)F)CC1 (stereo not drawn)	30.2	42

SMILES	IC50 [1] [µM]	IC50 [2] [µM]
CCNc1nnc(SC(C)C)s1	54.2	120
NCC(=O)N1CCCC(CCc2ccc(F)c(F)c2)C1 (stereo not drawn)	183	190
CCN1CCN(S(=O)(=O)c2c[nH]c(C(C)C)n2)c2ccccc21	> 50.1	> 50.1
O=C(CCC1CCCC1)N1CCC(c2cc3ncccc3c(O)n2)CC1	0.855	> 50.1
CC(C)CCn1ccc(NC(=O)C2(O)CCC2)n1	331	308
CC1=C[C@@H](CN2CCCC2)[C@H](C(C)C)C[C@H]1Cc1nnc(C)o1	> 50.1	> 50.1
Cc1cc(CNc2ccc(C(F)(F)F)cc2)no1	15.6	19.8
O=C1COC2(CCN(c3ccccn3)CC2)CN1	> 50.1	> 50.1
N#CC1(C(=O)N2CCc3sccc3C2)CCCC1	167	475
CC(=O)Nc1cccc(-c2ccccc2CCN)c1	> 50.1	49.7
Cc1nc(N)cc(N2CCCC(COc3cccc(F)c3)C2)n1 (stereo not drawn)	27.9	46
Cc1ccccc1CN1CCCN(S(=O)(=O)N(C)C2CCCCC2)CC1	> 50.1	> 50.1
COc1ccc(C2SCC(=O)N2c2ncc(C)s2)cc1 (stereo not drawn)	30.1	5.8
CCn1nnc(NCc2ccc(-c3ccc(Br)cc3)o2)n1	14.1	44.3
CCc1nn(C)c(Cl)c1CN1CCN(c2ccc(C(N)=O)cn2)CC1	> 50.1	> 50.1
CN1CCN(C(=O)c2cc3c(F)cccc3s2)CC1	> 501	165
NS(=O)(=O)C1CCN(Cc2ccc(Br)c(F)c2)C1 (stereo not drawn)	> 501	171
OC1(CNc2nc(-c3ccccc3)ns2)CCSC1 (stereo not drawn)	256	279
CCNC(=O)c1cc2ccc(OC)cc2[nH]1	> 501	283
Brc1ccc2c(c1)OCCNC2	> 501	> 501
Cn1nccc1C(=O)N1CCC(Oc2ccccc2)C1 (stereo not drawn)	161	232
CC(C)N(C)S(=O)(=O)NCCCN(C)c1ccccc1	216	193
CC(Oc1ccc2c(c1)OCO2)C(=O)NC1CC1 (stereo not drawn)	> 501	> 501
Cc1ncsc1CCCNC(=O)c1cnccn1	> 501	> 501
Cc1nn(C2CCCC2)c2nc(C(C)(C)CN3CCN(C)CC3)[nH]c12	> 50.1	> 50.1
Cc1[nH]c(=O)[nH]c(=O)c1CN1CCCC(CCc2ccc(F)cc2F)C1 (stereo not drawn)	> 50.1	> 50.1

SMILES	IC50 [1] [µM]	IC50 [2] [µM]
O=C1CCCCN1Cn1cc(I)cn1	318	251
CC(C)NC(=O)Nc1cc(C(F)(F)F)c[nH]c1=O	109	92.8
CCCOc1cc(CNC(=O)c2nccn2C)ccn1	201	248
O=C(OCCNc1ncccn1)c1ccc(Br)s1	29.8	> 50.1
CC(C)c1nccn1C1CCCN(C(=O)c2ccc3[nH]nnc3c2)C1 (stereo not drawn)	> 50.1	> 50.1
Cc1ccoc1C(=O)N(C)Cc1nc(C(C)C)no1	179	> 501
O=C(NCC1CC1)N1CCN(Cc2ccc3c(c2)OCCO3)CC1	17.9	45.6
CN(Cc1nc(CC2CC2)no1)CC1Cc2ccccc2O1 (stereo not drawn)	22.8	38
O=C(NC1CC1)c1nc2c(s1)CCCN2c1ccccc1	14.2	> 50.1
Cc1ccccc1-c1nnn(CC(O)CC(F)(F)F)n1 (stereo not drawn)	126	102
COc1ccc(CCSc2nnc[nH]2)cc1	111	142
CCNc1cc2c(nn1)CCN(C(=O)C1COc3ccccc3C1)C2 (stereo not drawn)	45	44.6
O=C(NC1CC1)c1cccc(CNc2ccccn2)c1	> 501	220
CC(=O)Nc1nc(C(=O)NCCOc2ccc(C)cc2)cs1	> 50.1	> 50.1
NCCc1nc(-c2ccccn2)cs1	1.16	2.67
CCC(C)NC(=O)Cc1ccc2c(c1)OCCO2 (stereo not drawn)	> 501	> 501
Cc1ccc(-c2noc(C(C)N)n2)cc1F (stereo not drawn)	327	368
O=c1n(Cc2ccccc2)nnn1-c1cccs1	12.7	7.64
COC(=O)CSCC(=O)Nc1cc(F)cc(F)c1	> 501	204
O=C(Nc1ccc(F)c(Cl)c1)N1CCC(O)C1 (stereo not drawn)	314	212
FC(F)Oc1cccc(N2CCNCC2)c1	347	147
OC(Cn1nnc(-c2ccsc2)n1)CC(F)(F)F (stereo not drawn)	39.2	56.5
O=C(c1cnsn1)N1CCN(c2ccccn2)CC1	51.4	84.6
CC1(C)CNCCC(=O)C1	246	259
COCCN(Cc1ccsc1)C(=O)CC1CCNC1 (stereo not drawn)	80.1	187
CNC(=O)c1cccc(NCc2ccc(C#N)s2)n1	205	180

SMILES	IC50 [1] [µM]	IC50 [2] [µM]
COc1cc(C(=O)Nc2nc(C)no2)ccc1C	> 50.1	> 50.1
Nc1nc(CCCNC(=O)Cc2ccsc2)cs1	> 501	> 501
O=C(CNCC1CC1)Nc1ccc(F)cc1	> 501	215
COc1cc(OC)cc(N2CCCNCC2)c1	150	112
c1cc2c(cc1CNc1nnc(C3CC3)o1)OCCO2	179	151
CN(Cc1ccc(O)cc1)C(=O)c1cc(Cl)c[nH]1	187	173
CCOc1ccc(N2CCCN=C2NC(=O)c2ccc(Cl)cc2)cc1	> 50.1	> 50.1
O=C(CNCC1CC1)Nc1ccccc1	> 501	171
CC(C)n1cnc(C2CN(C)c3ccc(C(=O)NCC4CC4)cc32)n1 (stereo not drawn)	> 50.1	> 50.1
COc1ccc(C(=O)NCCSc2cnn[nH]2)cc1F	> 501	> 501
CCCOC(=O)C(C)NC(=O)c1cccs1 (stereo not drawn)	287	249
CC(C)CC(O)C(=O)N1CCN(c2cccnc2)CC1 (stereo not drawn)	> 501	118
Cc1nnc(SCCC(=O)N(C)Cc2ccc(F)cc2F)[nH]1	> 50.1	> 50.1
Cc1cc(Br)oc1C(=O)Nc1ncccc1O	157	322
CNCc1nc2c(s1)CCCC2	259	221
Cc1ccc(OCCSCCn2nc3ccccn3c2=O)cc1	> 50.1	> 50.1
O[C@@H]1CNC[C@H](O)C1	> 501	> 501
O=C(c1cc(C2CC2)on1)N1CCC(Oc2ncccc2Cl)CC1	24.9	48.7
O=C(c1cc(C2CC2)on1)N1CC(O)(C2CC2)C1	44.5	47.3
CCc1noc(CNc2cc3c(cc2Cl)OCCCO3)n1	> 50.1	> 50.1
CCNC(=O)CNc1ccc(Br)cc1	210	162
CN(C)C(=O)CSCC(=O)NCc1ccc(Cl)cc1	> 501	86.8
CNC(=O)[C@@H](C)NC(=O)c1ccc(-c2ccc(C)o2)s1	278	297
Cc1nnc(SCc2ccc(Cl)s2)n1CC(N)=O	> 501	> 501
COc1ccc(CCNc2ccc3nnnn3n2)cc1	> 501	> 501
Cc1ccc2oc(N3CCNCC3)nc2c1	> 501	190
